Source: patent publication US20050148495A1, “Methods and materials including for treating acne” (priority 2003, published 2005)
Where two headings read alike, the source gives them in different places. Non-standard residues stand in square brackets, D forms with d. Residues, ends and D or L forms follow the SMILES beside them. d1Nal = N[C@H](Cc1cccc2ccccc12)C(=O)O

Assays:
Propionibacterium acnes = Propionibacterium acnes 6919
P. avidum = format: cell-based, Propionibacterium avidum
Experimental: (§1) This example addresses studies relating to the antimicrobial activities of XMP.629. An in vitro assessment of antibiotic activity in XMP.629 and various known antibiotics against a representative panel of bacterial strains associated with acne was conducted. A broth dilution methodology was employed using guidelines established by National Committee for Clinical Laboratory Standards (NCCLS) for anaerobic organisms to establish an antibacterial profile for XMP.629. Assays to determine the minimal bactericidal concentrations (MBC) and minimal inhibitory concentration (MIC) were conducted for XMP.629 and other known antibiotics. Furthermore, test to determine post antibiotic effect (PAE) of XMP.629 were done.
(§2) Inoculum from a representative panel of bacterial strains associated with acne, such as P. acnes, P. avidum, P. granulosum, and Staphylococcus epidermis was prepared by suspending approximately 5-10 isolated bacterial colonies in pre-reduced MicroScan® Inoculum Water (Dade Behring, Deerfield, Ill.), and growing the bacterial suspension to log phase (approximately 48 hrs). An inoculum of between 1-5×10^6/mL was achieved by adding 100 μL of the suspension to 25 mL Brain Heart Infusion Broth (BHI) (Anaerobe Systems, Morgan Hill, Calif.).
(§3) A stock solution of XMP.629 dissolved in water at a concentration of 4.0 mg/mL was prepared. Dilute solutions of XMP.629 at concentrations ranging from about 1.25 to about 160 μg/mL were made in either water or formulation buffer (130 mM sodium chloride, 0.2% P103 (poloxamer 333), and 0.10% EDTA, pH 7.3). Aqueous stock solutions of clindamycin and erythromycin were prepared in water.
(§4) Each tube, containing a final volume of 1 mL, was mixed by vortexing. Control tubes containing only water or formulation buffer were prepared for each isolate. Initial growth controls were determined by removing 10 μL from the water control tube and diluting it by 100 fold. From this dilution, 10 μL was used for inoculation and for spreading over the surface onto Laked Blood Agar (LBA) (Anaerobe Systems, Morgan Hill, Calif.) plates. The tubes and plates were incubated in an anaerobic atmosphere at 37° C. for 48 h. After incubation, the tubes were mixed and 10 μL samples were removed from each tube for additional plating. These plates were then further incubated in an anaerobic atmosphere at 37° C. for 48-72 h and the resulting colonies were counted. After adjusting for the dilution factor, the lowest concentration of drug or combination of drugs reducing the inoculum by ≧99.9% was considered to be the minimum bactericidal concentration (MBC). MBC50 and 90 values represent where 50 and 90%, respectively, of the tested strain's MBC values are equal to or less than the indicated concentration. The lowest concentration of antibiotic(s) that inhibited visible growth in the culture tubes was considered to be the minimal inhibitory concentration (MIC).
(§5) For comparison, additional Propionibacterium strains, were tested.

P. granulosum = format: cell-based, Propionibacterium granulosum
Experimental: as §1, §2, §3, §4, §5

[1] = RMA 8375, Formulation Buffer Solvent, Study 1
[2] = RMA 8375, Formulation Buffer Solvent, Study 2
[3] = RMA 8375, Water Solvent, Study 1
[4] = RMA 8375, Water Solvent, Study 2
[5] = RMA 8376, Formulation Buffer Solvent, Study 1
[6] = RMA 8376, Formulation Buffer Solvent, Study 2
[7] = RMA 8376, Water Solvent, Study 1
[8] = RMA 8376, Water Solvent, Study 2
[9] = RMA 9497, Formulation Buffer Solvent, Study 1
[10] = RMA 9497, Formulation Buffer Solvent, Study 2
[11] = RMA 9497, Water Solvent, Study 1
[12] = RMA 9497, Water Solvent, Study 2
[13] = RMA 13009, Formulation Buffer Solvent, Study 1
[14] = RMA 13009, Formulation Buffer Solvent, Study 2
[15] = RMA 13009, Water Solvent, Study 1
[16] = RMA 13009, Water Solvent, Study 2
[17] = RMA 5740, Formulation Buffer Solvent, Study 1
[18] = RMA 5740, Formulation Buffer Solvent, Study 2
[19] = RMA 5740, Water Solvent, Study 1
[20] = RMA 5740, Water Solvent, Study 2
[21] = RMA 6867, Formulation Buffer Solvent, Study 1
[22] = RMA 6867, Formulation Buffer Solvent, Study 2
[23] = RMA 6867, Water Solvent, Study 1
[24] = RMA 6867, Water Solvent, Study 2
[25] = RMA 7093, Formulation Buffer Solvent, Study 1
[26] = RMA 7093, Formulation Buffer Solvent, Study 2
[27] = RMA 7093, Water Solvent, Study 1
[28] = RMA 7093, Water Solvent, Study 2
[29] = RMA 11787, Formulation Buffer Solvent, Study 1
[30] = RMA 11787, Formulation Buffer Solvent, Study 2
[31] = RMA 11787, Water Solvent, Study 1
[32] = RMA 11787, Water Solvent, Study 2

Structure (SMILES): CC(C)C[C@@H](NC(=O)[C@H](N)CCCCN)C(=O)N[C@H](Cc1ccccc1)C(=O)N[C@H](CCCNC(=N)N)C(=O)N[C@H](Cc1cccc2ccccc12)C(=O)N[C@H](CCC(N)=O)C(=O)N[C@H](C)C(=O)N[C@H](CCCCN)C(=O)N[C@H](Cc1cccc2ccccc12)C(N)=O [XMP.629, NH2-lys-leu-phe-arg-(3-(1-naphthyl)-ala)-gln-ala-lys-(3-(1-naphthyl)-ala)-CONH2] (H-[dK][dL][dF][dR][d1Nal][dQ][dA][dK][d1Nal]-NH2)
- Minimum Inhibitory Concentrations (Staphylococcus aureus; Staphylococcus aureus 6258): 2.00 µg/mL
- Minimum Inhibitory Concentrations (Staphylococcus aureus; Staphylococcus aureus 11371): 2.00 µg/mL
- Minimum Inhibitory Concentrations (Staphylococcus aureus; Staphylococcus aureus 12598): 2.00 µg/mL
- Minimum Inhibitory Concentrations (Staphylococcus aureus; Staphylococcus aureus 19636): 2.00 µg/mL
- Minimum Inhibitory Concentrations (Staphylococcus aureus; Staphylococcus aureus BAA-38 (MRSA)): 2.00 µg/mL
- Minimum Inhibitory Concentrations (Propionibacterium acnes): 1.00 µg/mL
- MBC50 (P. avidum; P. avidum, 4 strains): 1 µg/mL
- MBC90 (P. avidum; P. avidum, 4 strains): 2 µg/mL
- MBC Range (P. avidum; P. avidum, 4 strains, in µg/mL): 1-2
- MBC (P. avidum; [1]): 0.50 µg/mL
- MIC (P. avidum; [1]): 0.25 µg/mL
- MBC (P. avidum; [2]): 1 µg/mL
- MIC (P. avidum; [2]): 0.25 µg/mL
- MBC (P. avidum; [3]): 1 µg/mL
- MIC (P. avidum; [3]): 0.5 µg/mL
- MBC (P. avidum; [4]): 2 µg/mL
- MIC (P. avidum; [4]): 1 µg/mL
- MBC (P. avidum; [5]): 0.50 µg/mL
- MIC (P. avidum; [5]): 0.5 µg/mL
- MBC (P. avidum; [6]): 2 µg/mL
- MIC (P. avidum; [6]): 0.25 µg/mL
- MBC (P. avidum; [7]): 2 µg/mL
- MIC (P. avidum; [7]): 1 µg/mL
- MBC (P. avidum; [8]): 2 µg/mL
- MIC (P. avidum; [8]): 1 µg/mL
- MBC (P. avidum; [9]): 1 µg/mL
- MIC (P. avidum; [9]): 0.25 µg/mL
- MBC (P. avidum; [10]): 2 µg/mL
- MIC (P. avidum; [10]): 0.25 µg/mL
- MBC (P. avidum; [11]): 2 µg/mL
- MIC (P. avidum; [11]): 2 µg/mL
- MBC (P. avidum; [12]): 4 µg/mL
- MIC (P. avidum; [12]): 1 µg/mL
- MBC (P. avidum; [13]): 0.50 µg/mL
- MIC (P. avidum; [13]): 0.25 µg/mL
- MBC (P. avidum; [14]): 1 µg/mL
- MIC (P. avidum; [14]): 0.25 µg/mL
- MBC (P. avidum; [15]): 1 µg/mL
- MIC (P. avidum; [15]): 1 µg/mL
- MBC (P. avidum; [16]): 1 µg/mL
- MIC (P. avidum; [16]): 1 µg/mL
- MBC50 (P. granulosum; P. granulosum, 4 strains): 0.25 µg/mL
- MBC90 (P. granulosum; P. granulosum, 4 strains): 4 µg/mL
- MBC Range (P. granulosum; P. granulosum, 4 strains, in µg/mL): 0.25-4
- MBC (P. granulosum; [17]): 2 µg/mL
- MIC (P. granulosum; [17]): 1 µg/mL
- MBC (P. granulosum; [18]): 0.25 µg/mL
- MIC (P. granulosum; [18]): 0.25 µg/mL
- MBC (P. granulosum; [19]): 4 µg/mL
- MIC (P. granulosum; [19]): 2 µg/mL
- MBC (P. granulosum; [20]): 1 µg/mL
- MIC (P. granulosum; [20]): 1 µg/mL
- MBC (P. granulosum; [21]): 2 µg/mL
- MIC (P. granulosum; [21]): 0.5 µg/mL
- MBC (P. granulosum; [22]): 4 µg/mL
- MIC (P. granulosum; [22]): 4 µg/mL
- MBC (P. granulosum; [23]): 2 µg/mL
- MIC (P. granulosum; [23]): 1 µg/mL
- MBC (P. granulosum; [24]): 4 µg/mL
- MIC (P. granulosum; [24]): 4 µg/mL
- MBC (P. granulosum; [25]): 2 µg/mL
- MIC (P. granulosum; [25]): 1 µg/mL
- MBC (P. granulosum; [26]): 0.25 µg/mL
- MIC (P. granulosum; [26]): 0.25 µg/mL
- MBC (P. granulosum; [27]): 2 µg/mL
- MIC (P. granulosum; [27]): 2 µg/mL
- MBC (P. granulosum; [28]): 0.5 µg/mL
- MIC (P. granulosum; [28]): 1 µg/mL
- MBC (P. granulosum; [29]): 2 µg/mL
- MIC (P. granulosum; [29]): 2 µg/mL
- MBC (P. granulosum; [30]): 0.25 µg/mL
- MIC (P. granulosum; [30]): 0.25 µg/mL
- MBC (P. granulosum; [31]): 2 µg/mL
- MIC (P. granulosum; [31]): 2 µg/mL
- MBC (P. granulosum; [32]): 1 µg/mL
- MIC (P. granulosum; [32]): 1 µg/mL
